{
  "source": "patent US6271247A",
  "about": "“Hydrazide compounds” (Adir et Compagnie, priority 1998, dated 2001)",
  "key": {"[1]": {"target": "T1, Y5 receptor (Homo sapiens, UniProt Q15761)", "T1 construct": "host or cells: unnamed cell line expressing the Y5 sub-type", "T1 sequence (Q15761 1-445)": "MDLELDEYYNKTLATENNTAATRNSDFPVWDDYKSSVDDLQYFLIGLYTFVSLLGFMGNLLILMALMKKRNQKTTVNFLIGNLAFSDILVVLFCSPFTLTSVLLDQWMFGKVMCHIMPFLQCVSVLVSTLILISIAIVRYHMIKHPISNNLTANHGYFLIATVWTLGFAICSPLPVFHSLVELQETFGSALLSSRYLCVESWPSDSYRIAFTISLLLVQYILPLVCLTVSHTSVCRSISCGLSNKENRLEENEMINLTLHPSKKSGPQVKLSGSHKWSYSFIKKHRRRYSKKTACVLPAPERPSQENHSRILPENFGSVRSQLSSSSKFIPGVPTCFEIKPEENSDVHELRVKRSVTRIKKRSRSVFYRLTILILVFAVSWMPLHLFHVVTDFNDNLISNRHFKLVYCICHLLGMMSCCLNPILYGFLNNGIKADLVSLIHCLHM", "assay": "In vitro affinity for NPY receptors, competition binding with [125I]-PYY on cell line expressing the Y5 sub-type", "settings": "radioligand [125I]-PYY 15 to 65 pM", "description": "The capacity of the compounds of the invention to bind to NPY receptors was measured on various cell lines, each expressing one of the receptor sub-types studied. Competition binding experiments were carried out using the peptide [^125 I]-PYY as radioligand at concentrations ranging from 15 to 65 pM. The non-specific fraction is measured in the presence of a concentration of 1 μM NPY. The cells are incubated for a period ranging from 1 to 2 hours depending upon the lines, and the radioactivity is collected after filtration over a GF/C filter treated with 0.1% PEI, before being measured.\nThe results are expressed as IC50."}, "[2]": {"tested_on": "obese ob/ob mouse", "assay": "Effect on food intake and weight development in the obese ob/ob mouse", "format": "in vivo, mouse (female ob/ob C57B1/6J)", "settings": "5 mg/kg IP, twice daily", "description": "The compounds of the invention were administered in vivo to the obese ob/ob mouse in order to evaluate their influence on food intake and weight development. The animals used are 13- to 18-week-old female ob/ob C57B1/6J mice. They are divided into groups each comprising 4 animals per cage, the cages being fitted with a grating floor, and the mice having free access to food.\nBefore the experiments, the animals are conditioned for a period ranging from 2 to 3 weeks until their food consumption has stabilised. The experiments may be summarised as follows:\nD -14 to D -7: conditioning\nD -7 to D -3: measurement of the basal food intake\nD0 to D +3: animals treated twice daily, the control groups being given the carrier D0 to D +4: daily measurement of food intake and body weight\nThe test products are dissolved, immediately before use, in water, 0.9% sodium chloride, propylene glycol or dimethyl sulphoxide, depending upon their solubility, and are administered intraperitoneally (IP), in a volume of 2.5 ml/kg.\nThe parameters measured are the weight of the feed troughs containing the food and the body weight.\nThe results are expressed as: percentage variation in food intake under treatment compared with the basal food intake; percentage variation in body weight between the first and last day of treatment."}},
  "data": [
    {"smiles": "O=C(NNC(=O)C1CCC(CNS(=O)(=O)c2ccc3ccccc3c2)CC1)c1ccccc1", "note": "(stereo not drawn) [Example 44, N2-({4-[(2-Benzoylhydrazino)carbonyl]cyclohexyl}methyl)-2-naphthalenesulphonamide]", "values": [
      {"measurement": "IC50", "setting": "[1]", "value": 14.5, "unit": "nM"},
      {"measurement": "Food intake % variation (D1), Treated (compared with the basal food intake)", "setting": "[2]; D1, control -25.3", "value": -75.2, "unit": "%"},
      {"measurement": "Body weight % variation (D4/D0)", "setting": "[2]; D4/D0", "value": -6.0, "unit": "%"}
    ]}
  ]
}
